{
  "source": "patent US6965021B2",
  "about": "“Feedback-resistant pyruvate carboxylase gene from corynebacterium” (Archer-Daniels-Midland Company, priority 2000, dated 2005)",
  "molecules": {"B1": {"name": "Pyc: feedback-resistant pyruvate carboxylase (SEQ ID NO:2) from Corynebacterium glutamicum NRRL B-11474, also known as BF100 (protein)", "chain": "MTAITLGGLLLKGIITLVSTHTSSTLPAFKKILVANRGEIAVRAFRAALETGAATVAIYPREDRGSFHRSFASEAVRIGTEGSPVKAYLDIDEIIGAAKKVKADAIYPGYGFLSENAQLARECAENGITFIGPTPEVLDLTGDKSRAVTAAKKAGLPVLAESTPSKNIDDIVKSAEGQTYPIFVKAVAGGGGRGMRFVSSPDELRKLATEASREAEAAFGDGSVYVERAVINPQHIEVQILGDRTGEVVHLYERDCSLQRRHQKVVEIAPAQHLDPELRDRICADAVKFCRSIGYQGAGTVEFLVDEKGNHVFIEMNPRIQVEHTVTEEVTEVDLVKAQMRLAAGATLKELGLTQDKIKTHGAALQCRITTEDPNNGFRPDTGTITAYRSPGGAGVRLDGAAQLGGEITAHFDSMLVKMTCRGSDFETAVARAQRALAEFTVSGVATNIGFLRALLREEDFTSKRIATGFIGDHPHLLQAPPADDEQGRILDYLADVTVNKPHGVRPKDVAAPIDKLPNIKDLPLPRGSRDRLKQLGPAAFARDLREQDALAVTDTTFRDAHQSLLATRVRSFALKPAAEAVAKLTPELLSVEAWGGATYDVAMRFLFEDPWDRLDELREAMPNVNIQMLLRGRNTVGYTPYPDSVCRAFVKEAASSGVDIFRIFDALNDVSQMRPAIDAVLETNTAVAEVAMAYSGDLSDPNEKLYTLDYYLKMAEEIVKSGAHILAIKDMAGLLRPAAVTKLVTALRREFDLPVHVHTHDTAGGQLATYFAAAQAGADAVDGASAPLSGTTSQPSLSAIVAAFAHTRRDTGLSLEAVSDLEPYWEAVRGLYLPFESGTPGPTGRVYRHEIPGGQLSNLRAQATALGLADRFELIEDNYAAVNEMLGRPTKVTPSSKVVGDLALHLVGAGVDPADFAADPQKYDIPDSVIAFLRGELGNPPGGWPEPLRTRALEGRSEGKAPLTEVPEEEQAHLDADDSKERRNSLNRLLFPKPTEEFLEHRRRFGNTSALDDREFFYGLVEGRETLIRLPDVRTPLLVRLDAISEPDDKGMRNVVANVNGQIRPMRVRDRSVESVTATAEKADSSNKGHVAAPFAGVVTVTVAEGDEVKAGDAVAIIEAMKMEATITASVDGKIERVVVPAATKVEGGDLIVVVS"}},
  "key": {"[1]": {"biological_target": "T1, Corynebacterium glutamicum ATCC 21253 pyruvate carboxylase, wild type, SEQ ID NO:19 (Corynebacterium glutamicum, UniProt H7C7K2)", "T1 construct": "coupled citrate synthase/DTNB assay", "T1 sequence (H7C7K2 1-1140)": "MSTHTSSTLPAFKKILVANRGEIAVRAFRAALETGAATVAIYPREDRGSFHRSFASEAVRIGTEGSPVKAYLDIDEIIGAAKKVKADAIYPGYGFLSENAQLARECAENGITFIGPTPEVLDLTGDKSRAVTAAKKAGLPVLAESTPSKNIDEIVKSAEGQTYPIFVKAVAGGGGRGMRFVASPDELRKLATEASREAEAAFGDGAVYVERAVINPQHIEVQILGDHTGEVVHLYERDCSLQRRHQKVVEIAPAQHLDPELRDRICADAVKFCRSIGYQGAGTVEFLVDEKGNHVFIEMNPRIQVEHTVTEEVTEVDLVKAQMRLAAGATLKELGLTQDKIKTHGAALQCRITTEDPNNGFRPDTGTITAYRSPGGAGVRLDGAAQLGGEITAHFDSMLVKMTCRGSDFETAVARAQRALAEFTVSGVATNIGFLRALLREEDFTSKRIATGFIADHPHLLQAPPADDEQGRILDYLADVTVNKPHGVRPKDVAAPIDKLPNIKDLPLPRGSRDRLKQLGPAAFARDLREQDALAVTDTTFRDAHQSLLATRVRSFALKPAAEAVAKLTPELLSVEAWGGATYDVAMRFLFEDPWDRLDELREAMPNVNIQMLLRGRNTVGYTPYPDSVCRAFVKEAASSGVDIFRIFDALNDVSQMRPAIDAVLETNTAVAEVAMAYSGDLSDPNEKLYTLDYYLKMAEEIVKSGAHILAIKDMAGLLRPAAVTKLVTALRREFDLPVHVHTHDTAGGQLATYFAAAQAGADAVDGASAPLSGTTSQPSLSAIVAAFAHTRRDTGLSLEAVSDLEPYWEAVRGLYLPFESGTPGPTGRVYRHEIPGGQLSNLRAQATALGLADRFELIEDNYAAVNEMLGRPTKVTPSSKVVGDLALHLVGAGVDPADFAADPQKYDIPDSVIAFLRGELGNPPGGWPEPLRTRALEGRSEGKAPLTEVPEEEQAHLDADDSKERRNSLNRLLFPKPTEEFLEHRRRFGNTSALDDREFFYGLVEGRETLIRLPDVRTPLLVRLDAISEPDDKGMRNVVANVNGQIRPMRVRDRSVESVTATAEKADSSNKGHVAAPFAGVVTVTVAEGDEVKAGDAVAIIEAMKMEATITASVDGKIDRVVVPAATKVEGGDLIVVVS", "test": "Continuous pyruvate carboxylase assay (permeabilized cells), ATCC 21253", "format": "biochemical", "experimental": "(§1) Pyruvate carboxylate and phosphoenol pyruvate carboxylate assays were performed with permeabilized cells prepared by the following method. Log phase cells were harvested by centrifugation for 10 min at 5000×g at 4° C. and washed with 20 ml of the ice-cold washing buffer (50 mM Tris/HCl [pH 6.3] containing 50 mM NaCl). The cell pellet was resuspended in an ice-cold Hepes buffer (100 mM Hepes [pH 7.5] containing 20% Glycerol) to reach a final concentration of 25 g dry cell weight/liter. Resuspended cells were permeabilized by adding 30 μl of a 10% Hexadecyltrimethyl-ammonium bromide (CTAB) (w/v) solution to 1 ml of cells to give a final concentration of 0.3% (CTAB)(v/v). […]\n(§2) Pyruvate carboxylase activity was determined as a function of various concentrations of its substrates: pyruvate, bicarbonate and ATP (FIG. 3). Based on the data generated, the affinity constants of pyruvate carboxylase for its substrates were determined (Table 2).\nTo determine the effect of aspartate on the activity of pyruvate carboxylase, aspartate was added at different concentrations in the spectrophotometer cuvette and enzyme activities were measured. […]\n(§3) Pyruvate carboxylase activity was measured in the presence of different concentrations of acetyl-CoA (FIG. 6). […]"}, "[2]": {"biological_target": "Corynebacterium glutamicum NRRL B-11474 (BF100) pyruvate carboxylase, feedback-resistant variant (M1V, E153D, A182S, A206S, H227R, A455G, D1120E), SEQ ID NO:2 (Corynebacterium glutamicum, UniProt H7C7K2, A182S/A206S/A455G/D1120E/E153D/H227R/M1V)", "experimental": "Pyruvate carboxylate and phosphoenol pyruvate carboxylate assays were performed with permeabilized cells prepared by the following method. Log phase cells were harvested by centrifugation for 10 min at 5000×g at 4° C. and washed with 20 ml of the ice-cold washing buffer (50 mM Tris/HCl [pH 6.3] containing 50 mM NaCl). The cell pellet was resuspended in an ice-cold Hepes buffer (100 mM Hepes [pH 7.5] containing 20% Glycerol) to reach a final concentration of 25 g dry cell weight/liter. Resuspended cells were permeabilized by adding 30 μl of a 10% Hexadecyltrimethyl-ammonium bromide (CTAB) (w/v) solution to 1 ml of cells to give a final concentration of 0.3% (CTAB)(v/v).\nThe reaction was started at 30° C. with the addition of 10 μl of the permeabilized cell suspension, and the formation of DTNB-thiophenolate was followed over time at 412 nm. Relevant standards and controls were carried out in the same manner.\n(§4) To account for the intrinsic loss of OAA during the experiment, a continuous assay was carried out by coupling the two-reaction assay to a one-reaction assay in presence of an excess of citrate synthase. The amount of permeabilized cells added in the assay was optimized to obtain a detectable activity, with the lowest possible background absorbency due to the presence of cells.\nas §2\nTo determine the effect of aspartate on the activity of pyruvate carboxylase, aspartate was added at different concentrations in the spectrophotometer cuvette and enzyme activities were measured. As a comparison, the same experiment was carried out with PEPC in ATCC 21253 (FIG. 5).\nPyruvate carboxylase activity was measured in the presence of different concentrations of acetyl-CoA (FIG. 6). […] The effect of acetyl-CoA on citrate synthase itself was studied also."}, "[3]": {"test_system": "Nc1ncnc2c1ncn2[C@@H]1O[C@H](COP(=O)(O)OP(=O)(O)OP(=O)(O)O)[C@@H](O)[C@H]1O", "test": "purified protein, by the assay type", "conditions": "other: permeabilized cells, pH 7.5, 30° C.", "description": "(§7) To account for the intrinsic loss of OAA during the experiment, a continuous assay was carried out by coupling the two-reaction assay to a one-reaction assay in presence of an excess of citrate synthase. […]"}, "CC(=O)C(=O)O": {"test_system": "CC(=O)C(=O)O", "test": "purified protein, by the assay type", "conditions": "other: permeabilized cells, pH 7.5, 30° C.", "description": "as §7"}, "[4]": {"test_system": "pyruvate carboxylase from NRRL B-11474", "test": "Effect of aspartate, ATP and acetyl-CoA on pyruvate carboxylase activity, strain NRRL B-11474", "format": "biochemical, Corynebacterium glutamicum", "experimental": "as §1\n(§5) Pyruvate carboxylase activity was determined as a function of various concentrations of its substrates: pyruvate, bicarbonate and ATP (FIG. 3). Based on the data generated, the affinity constants of pyruvate carboxylase for its substrates were determined (Table 2). […]\n(§6) Aspartate inhibits phosphoenol pyruvate carboxylase (PEPC) activity. To determine the effect of aspartate on the activity of pyruvate carboxylase, aspartate was added at different concentrations in the spectrophotometer cuvette and enzyme activities were measured. […]\nas §3"}, "citrate synthase": {"test_system": "citrate synthase", "test": "Effect of acetyl-CoA on citrate synthase", "format": "biochemical", "conditions": "acetyl-CoA on citrate synthase itself", "experimental": "Pyruvate carboxylase activity was measured in the presence of different concentrations of acetyl-CoA (FIG. 6). Pyruvate carboxylase activity in both strains increased with increasing acetyl-CoA concentrations. The effect of acetyl-CoA on citrate synthase itself was studied also. […] Therefore, the increasing activity of pyruvate carboxylase with increasing acetyl-CoA concentration is the result of acetyl-CoA activating pyruvate carboxylase."}, "[5]": {"test_system": "pyruvate carboxylase from ATCC 21253", "test": "Effect of aspartate, ATP and acetyl-CoA on pyruvate carboxylase activity, strain ATCC 21253", "format": "biochemical, Corynebacterium glutamicum", "experimental": "as §1, §5, §6, §3"}, "pyruvate carboxylase [6]": {"test_system": "pyruvate carboxylase", "test": "Controls for the continuous pyruvate carboxylate assay", "format": "biochemical, Corynebacterium glutamicum", "conditions": "complete mixture + biotin (complete mixture alone 0.30)", "experimental": "For determination of pyruvate carboxylate activity, the assay mixture contained 10 mM pyruvic acid, 14 mM KHCO3, 4 mM MgCl2, 1.75 mM ATP, 50 μmole acetyl-CoA, 0.3 mg bovine serum albumin, 0.055 U citrate synthase and 50 mM sodium phosphate buffer ([pH 7.5] containing 0.1 mg 5,5′-Dithio-bis(2-nitrobenzoic acid) (DTNB)) in a final volume of 1 ml. The reaction was started at 30° C. with the addition of 10 μl of the permeabilized cell suspension, and the formation of DTNB-thiophenolate was followed over time at 412 nm. Relevant standards and controls were carried out in the same manner.\nas §4\nTo confirm that the continuous assay specifically detected pyruvate carboxylase activity, controls were carried out by assaying for activity in absence of each reaction component (Table 1). Using these controls, the detected activity was determined to be a carboxylation reaction requiring pyruvate, Mg and ATP."}, "pyruvate carboxylase [7]": {"test_system": "pyruvate carboxylase", "test": "Continuous pyruvate carboxylase assay with permeabilized cells: affinity constants for substrates and basal activity", "format": "biochemical, Corynebacterium glutamicum", "conditions": "NRRL B-11474 versus ATCC 21253"}, "[8]": {"conditions": "different concentrations of acetyl-CoA"}, "[9]": {"conditions": "ATP above a concentration of 2 mM"}},
  "data": [
    {"molecule": "O=C(O)O", "note": "[HCO3−, bicarbonate]", "values": [
      {"measurement": "Km", "setting": "[1]; permeabilized cells, pH 7.5, 30° C., read-out: KM(HCO3−)", "value": "2900 ± 800", "unit": "µM"},
      {"measurement": "Km", "setting": "[2]; read-out: KM(HCO3−), permeabilized cells, pH 7.5, 30° C.", "value": "14400 ± 4000", "unit": "µM"}
    ]},
    {"molecule": "Corynebacterium glutamicum NRRL B-11474 (BF100) pyruvate carboxylase, feedback-resistant variant (M1V, E153D, A182S, A206S, H227R, A455G, D1120E), SEQ ID NO:2 (Corynebacterium glutamicum ATCC 13032; A182S/A206S/A455G/D1120E/E153D/H227R/M1V)", "values": [
      {"measurement": "Km", "setting": "[3]", "value": "400 ± 100", "unit": "µM"},
      {"measurement": "Km", "setting": "CC(=O)C(=O)O", "value": "1300 ± 300", "unit": "µM"}
    ]},
    {"molecule": "CC(=O)SCCNC(=O)CCNC(=O)[C@H](O)C(C)(C)COP(=O)(O)OP(=O)(O)OC[C@H]1O[C@@H](n2cnc3c(N)ncnc32)[C@H](O)[C@@H]1OP(=O)(O)O", "note": "[acetyl-CoA]", "values": [
      {"measurement": "pyruvate carboxylase activity with increasing acetyl-CoA concentrations", "setting": "[4]; [8]", "value": "increased"},
      {"measurement": "Km", "setting": "citrate synthase", "value": 10, "unit": "µM"},
      {"measurement": "pyruvate carboxylase activity with increasing acetyl-CoA concentrations", "setting": "[5]; [8]", "value": "increased"}
    ]},
    {"molecule": "O=C(O)CCCC[C@@H]1SC[C@@H]2NC(=O)N[C@@H]21", "note": "[biotin]", "values": [
      {"measurement": "Detected Activity", "setting": "pyruvate carboxylase [6]", "value": 0.35, "unit": "Abs/min.mg DCW"}
    ]},
    {"molecule": "Nc1ncnc2c1ncn2[C@@H]1O[C@H](COP(=O)(O)OP(=O)(O)OP(=O)(O)O)[C@@H](O)[C@H]1O", "note": "[ATP, adenosine triphosphate]", "values": [
      {"measurement": "ATP concentration above which activity is inhibited", "setting": "[4]", "value": "> 2", "unit": "mM"},
      {"measurement": "ATP concentration above which activity is inhibited", "setting": "[5]", "value": "> 2", "unit": "mM"},
      {"measurement": "inhibition of pyruvate carboxylase activity by ATP", "setting": "[1]; [9]", "value": "inhibited"},
      {"measurement": "inhibition of pyruvate carboxylase activity by ATP", "setting": "[2]; [9]", "value": "inhibited"}
    ]},
    {"molecule": "B1", "values": [
      {"measurement": "basal pyruvate carboxylase activity relative to ATCC 21253", "setting": "pyruvate carboxylase [7]", "value": "about 5 times"}
    ]}
  ]
}
